# According to patent publication US7420056B2, “Substituted bicyclic imidazo-3-ylamine compounds” (Gruenenthal GmbH, priority 2004, dated 2008):
# Target: mGluR5 receptor (Sus scrofa, UniProt I3LUI7)
# Assay: Affinity for the mGluR5 receptor: inhibition of 3[H]-MPEP binding in pig brain homogenate
# Conditions: 10 μM compound, 5 nM 3[H]-MPEP, read-out: mGluR5 receptor inhibition of ^3[H]-MPEP binding [10 μM] in % at a concentration of the example compounds of 10 μM
# How it was run: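 Test compounds were screened at 10 μM for displacement of 5 nM [3H]-MPEP from pig brain homogenate (450 μg protein, pH 8.0 Hepes buffer) over 60 min at room temperature. After filtration, scintillation counting gave the read-out. 10 μM unlabelled MPEP set nonspecific binding.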
# mGluR5 receptor, sequence (I3LUI7 19-1212): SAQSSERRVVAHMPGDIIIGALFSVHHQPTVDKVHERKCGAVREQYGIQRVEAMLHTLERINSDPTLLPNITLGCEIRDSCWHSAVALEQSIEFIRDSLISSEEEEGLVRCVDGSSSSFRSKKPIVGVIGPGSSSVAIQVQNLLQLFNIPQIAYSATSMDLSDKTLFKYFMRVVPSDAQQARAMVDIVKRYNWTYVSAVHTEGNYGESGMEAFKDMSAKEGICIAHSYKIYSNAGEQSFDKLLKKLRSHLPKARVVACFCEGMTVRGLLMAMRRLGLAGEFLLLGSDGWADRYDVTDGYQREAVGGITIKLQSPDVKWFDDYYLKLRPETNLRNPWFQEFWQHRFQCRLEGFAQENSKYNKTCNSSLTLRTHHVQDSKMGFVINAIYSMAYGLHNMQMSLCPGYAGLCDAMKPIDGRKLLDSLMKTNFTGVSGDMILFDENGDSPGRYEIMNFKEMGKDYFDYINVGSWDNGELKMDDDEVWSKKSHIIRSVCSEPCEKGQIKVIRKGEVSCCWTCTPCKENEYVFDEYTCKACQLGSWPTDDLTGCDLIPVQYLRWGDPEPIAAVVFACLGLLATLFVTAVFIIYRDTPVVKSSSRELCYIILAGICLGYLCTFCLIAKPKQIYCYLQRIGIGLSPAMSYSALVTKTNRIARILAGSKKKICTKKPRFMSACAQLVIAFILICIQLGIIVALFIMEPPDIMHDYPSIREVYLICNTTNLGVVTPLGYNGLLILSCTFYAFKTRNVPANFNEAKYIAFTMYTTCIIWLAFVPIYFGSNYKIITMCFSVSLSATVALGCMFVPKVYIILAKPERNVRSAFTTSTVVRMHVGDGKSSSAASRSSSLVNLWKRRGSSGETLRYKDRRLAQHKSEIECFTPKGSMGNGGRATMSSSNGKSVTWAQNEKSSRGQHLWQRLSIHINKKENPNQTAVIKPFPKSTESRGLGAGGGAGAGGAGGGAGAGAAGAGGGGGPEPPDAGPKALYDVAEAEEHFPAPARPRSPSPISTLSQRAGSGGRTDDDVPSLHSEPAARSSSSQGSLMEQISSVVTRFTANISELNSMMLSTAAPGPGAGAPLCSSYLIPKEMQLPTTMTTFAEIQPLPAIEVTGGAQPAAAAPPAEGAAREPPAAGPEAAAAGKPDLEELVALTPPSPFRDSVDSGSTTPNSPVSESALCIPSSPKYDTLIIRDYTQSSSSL
row,inhibition at 10 µM,SMILES
1,66%,"CCCC(C)(C)Nc1c(-c2ccc(C#Cc3ccccc3)s2)nc2c(Br)cc(Br)cn12 [Example 236, 6,8-dibromo-N-(2-methylpentan-2-yl)-2-(5-(phenylethynyl)thiophen-2-yl)imidazo[1,2-a]pyridin-3-amine]"
2,60%,"CC(C)(C)CC(C)(C)Nc1c(-c2cccc(C#Cc3ccccn3)c2)nc2cnccn12 [Example 239, 2-(3-(pyridin-2-ylethynyl)phenyl)-N-(2,4,4-trimethylpentan-2-yl)imidazo[1,2-a]pyrazin-3-amine]"
3,95%,"C(#Cc1ccccn1)c1ccc(-c2nc3cnccn3c2NC2CCCC2)cc1 [Example 240, N-cyclopentyl-2-(4-(pyridin-2-ylethynyl)phenyl)imidazo[1,2-a]pyrazin-3-amine]"
4,65%,"CC(C)(C)CC(C)(C)Nc1c(-c2ccc(C#Cc3ccccn3)cc2)nc2c(Cl)cc(C(F)(F)F)cn12 [Example 241, 8-chloro-2-(4-(pyridin-2-ylethynyl)phenyl)-6-(trifluoromethyl)-N-(2,4,4-trimethylpentan-2-yl)imidazo[1,2-a]pyridin-3-amine]"
5,91%,"Fc1ccc(Nc2c(-c3ccc(C#Cc4ccccn4)cc3)nc3cnccn23)cc1 [Example 242, N-(4-fluorophenyl)-2-(4-(pyridin-2-ylethynyl)phenyl)imidazo[1,2-a]pyrazin-3-amine]"
6,68%,"CC(C)(C)CC(C)(C)Nc1c(-c2ccc(C#Cc3ccccn3)o2)nc2cnccn12 [Example 248, 2-(5-(pyridin-2-ylethynyl)furan-2-yl)-N-(2,4,4-trimethylpentan-2-yl)imidazo[1,2-a]pyrazin-3-amine]"
7,69%,"Cc1cc(Br)c2nc(-c3ccc(C#Cc4ccccn4)cc3)c(NC3CCCC3)n2c1 [Example 250, 8-bromo-N-cyclopentyl-6-methyl-2-(4-(pyridin-2-ylethynyl)phenyl)imidazo[1,2-a]pyridin-3-amine]"
8,73%,"CC(C)(C)CC(C)(C)Nc1c(-c2ccc(C#Cc3ccccn3)s2)nc2ncccn12 [Example 253, 2-(5-(pyridin-2-ylethynyl)thiophen-2-yl)-N-(2,4,4-trimethylpentan-2-yl)imidazo[1,2-a]pyrimidin-3-amine]"
9,81%,"CC(C)(C)CC(C)(C)Nc1c(-c2cccc(C#Cc3ccccn3)c2)nc2ncccn12 [Example 255, 2-(3-(pyridin-2-ylethynyl)phenyl)-N-(2,4,4-trimethylpentan-2-yl)imidazo[1,2-a]pyrimidin-3-amine]"
10,43%,"CC(C)(C)CC(C)(C)Nc1c(-c2ccc(C#Cc3ccccc3)nc2)nc2ncccn12 [Example 256, 2-(6-(phenylethynyl)pyridin-3-yl)-N-(2,4,4-trimethylpentan-2-yl)imidazo[1,2-a]pyrimidin-3-amine]"
11,86%,"CC(C)(C)Nc1c(-c2ccc(C#Cc3ccccn3)o2)nc2ncccn12 [Example 258, N-tert-butyl-2-(5-(pyridin-2-ylethynyl)furan-2-yl)imidazo[1,2-a]pyrimidin-3-amine]"
12,79%,"CC(C)(C)Nc1c(-c2cccc(C#Cc3ccccn3)c2)nc2ccccn12 [Example 261, N-tert-butyl-2-(3-(pyridin-2-ylethynyl)phenyl)imidazo[1,2-a]pyridin-3-amine]"
13,72%,"CC(C)(C)CC(C)(C)Nc1c(-c2cccc(C#Cc3ccccn3)c2)nc2ccccn12 [Example 262, 2-(3-(pyridin-2-ylethynyl)phenyl)-N-(2,4,4-trimethylpentan-2-yl)imidazo[1,2-a]pyridin-3-amine]"
14,85%,"Fc1ccc(Nc2c(-c3cccc(C#Cc4ccccn4)c3)nc3ccccn23)cc1 [Example 263, N-(4-fluorophenyl)-2-(3-(pyridin-2-ylethynyl)phenyl)imidazo[1,2-a]pyridin-3-amine]"
15,83%,"CC(C)(C)Nc1c(-c2ccc(C#Cc3ccccn3)cc2)nc2ccccn12 [Example 264, N-tert-butyl-2-(4-(pyridin-2-ylethynyl)phenyl)imidazo[1,2-a]pyridin-3-amine]"
16,75%,"Cc1ccc2nc(-c3ccc(C#Cc4ccccn4)s3)c(NC(C)(C)C)n2c1 [Example 268, N-tert-butyl-6-methyl-2-(5-(pyridin-2-ylethynyl)thiophen-2-yl)imidazo[1,2-a]pyridin-3-amine]"
17,93%,"Cc1ccc2nc(-c3ccc(C#Cc4ccccn4)s3)c(NC(C)(C)CC(C)(C)C)n2c1 [Example 270, 6-methyl-2-(5-(pyridin-2-ylethynyl)thiophen-2-yl)-N-(2,4,4-trimethylpentan-2-yl)imidazo[1,2-a]pyridin-3-amine]"
18,31%,"Cc1ccc2nc(-c3ccc(C#Cc4ccccc4)nc3C)c(NC(C)(C)CC(C)(C)C)n2c1 [Example 271, 6-methyl-2-(2-methyl-6-(phenylethynyl)pyridin-3-yl)-N-(2,4,4-trimethylpentan-2-yl)imidazo[1,2-a]pyridin-3-amine]"

# The next lines start with the compound.
row,SMILES,inhibition at 10 µM
1,"C(#Cc1csc(-c2nc3cc(-c4ccccc4)ccn3c2NCCc2cccs2)c1)c1ccccc1 [Example 235, 7-phenyl-2-(4-(phenylethynyl)thiophen-2-yl)-N-(2-(thiophen-2-yl)ethyl)imidazo[1,2-a]pyridin-3-amine]",32%
2,"Cc1cccc(C)c1Nc1c(-c2cc(C#Cc3ccccc3)cs2)nc2c(C)cc(Br)cn12 [Example 237, 6-bromo-N-(2,6-dimethylphenyl)-8-methyl-2-(4-(phenylethynyl)thiophen-2-yl)imidazo[1,2-a]pyridin-3-amine]",36%
3,"C(#Cc1ccccn1)c1cccc(-c2nc3cnccn3c2NC2CCCCC2)c1 [Example 238, N-cyclohexyl-2-(3-(pyridin-2-ylethynyl)phenyl)imidazo[1,2-a]pyrazin-3-amine]",92%
4,"Cc1nc(C#Cc2ccccc2)ccc1-c1nc2cnccn2c1NC1CCCC1 [Example 243, N-cyclopentyl-2-(2-methyl-6-(phenylethynyl)pyridin-3-yl)imidazo[1,2-a]pyrazin-3-amine]",80%
5,"Cc1nc(C#Cc2ccccc2)ccc1-c1nc2cnccn2c1NC1CCCCC1 [Example 244, N-cyclohexyl-2-(2-methyl-6-(phenylethynyl)pyridin-3-yl)imidazo[1,2-a]pyrazin-3-amine]",54%
6,"C(#Cc1ccc(-c2nc3cnccn3c2NC2CCCC2)o1)c1ccccn1 [Example 245, N-cyclopentyl-2-(5-(pyridin-2-ylethynyl)furan-2-yl)imidazo[1,2-a]pyrazin-3-amine]",92%
7,"Cc1cc(Br)c2nc(-c3ccc(C#Cc4ccccn4)o3)c(NC3CCCC3)n2c1 [Example 246, 8-bromo-N-cyclopentyl-6-methyl-2-(5-(pyridin-2-ylethynyl)furan-2-yl)imidazo[1,2-a]pyridin-3-amine]",74%
8,"C(#Cc1ccc(-c2nc3cnccn3c2NC2CCCCC2)o1)c1ccccn1 [Example 247, N-cyclohexyl-2-(5-(pyridin-2-ylethynyl)furan-2-yl)imidazo[1,2-a]pyrazin-3-amine]",83%
9,"Cc1cccc(C#Cc2cccc(-c3nc4cnccn4c3NC3CCCC3)c2)n1 [Example 249, N-cyclopentyl-2-(3-((6-methylpyridin-2-yl)ethynyl)phenyl)imidazo[1,2-a]pyrazin-3-amine]",80%
10,"Cc1cccc(C#Cc2cccc(-c3nc4cnccn4c3NC3CCCCC3)c2)n1 [Example 251, N-cyclohexyl-2-(3-((6-methylpyridin-2-yl)ethynyl)phenyl)imidazo[1,2-a]pyrazin-3-amine]",80%
11,"Cc1cccc(C#Cc2cccc(-c3nc4cnccn4c3Nc3ccc(F)cc3)c2)n1 [Example 252, N-(4-fluorophenyl)-2-(3-((6-methylpyridin-2-yl)ethynyl)phenyl)imidazo[1,2-a]pyrazin-3-amine]",86%
12,"C(#Cc1ccccn1)c1cccc(-c2nc3ncccn3c2NC2CCCCC2)c1 [Example 254, N-cyclohexyl-2-(3-(pyridin-2-ylethynyl)phenyl)imidazo[1,2-a]pyrimidin-3-amine]",77%
13,"C(#Cc1ccc(-c2nc3ncccn3c2NC2CCCC2)o1)c1ccccn1 [Example 257, N-cyclopentyl-2-(5-(pyridin-2-ylethynyl)furan-2-yl)imidazo[1,2-a]pyrimidin-3-amine]",77%
14,"Cc1cccc(C#Cc2cccc(-c3nc4ncccn4c3NC3CCCC3)c2)n1 [Example 259, N-cyclopentyl-2-(3-((6-methylpyridin-2-yl)ethynyl)phenyl)imidazo[1,2-a]pyrimidin-3-amine]",82%
15,"C(#Cc1ccccn1)c1cccc(-c2nc3ccccn3c2NC2CCCC2)c1 [Example 260, N-cyclopentyl-2-(3-(pyridin-2-ylethynyl)phenyl)imidazo[1,2-a]pyridin-3-amine]",64%
16,"Cc1nc(C#Cc2ccccc2)ccc1-c1nc2ccccn2c1NC1CCCC1 [Example 265, N-cyclopentyl-2-(2-methyl-6-(phenylethynyl)pyridin-3-yl)imidazo[1,2-a]pyridin-3-amine]",68%
17,"Cc1nc(C#Cc2ccccc2)ccc1-c1nc2ccccn2c1Nc1ccc(F)cc1 [Example 266, N-(4-fluorophenyl)-2-(2-methyl-6-(phenylethynyl)pyridin-3-yl)imidazo[1,2-a]pyridin-3-amine]",63%
18,"Cc1ccc2nc(-c3ccc(C#Cc4ccccn4)s3)c(NC3CCCC3)n2c1 [Example 267, N-cyclopentyl-6-methyl-2-(5-(pyridin-2-ylethynyl)thiophen-2-yl)imidazo[1,2-a]pyridin-3-amine]",85%
19,"Cc1ccc2nc(-c3ccc(C#Cc4ccccn4)s3)c(NC3CCCCC3)n2c1 [Example 269, N-cyclohexyl-6-methyl-2-(5-(pyridin-2-ylethynyl)thiophen-2-yl)imidazo[1,2-a]pyridin-3-amine]",94%
